For test [1], the target named is T1, CDK7 (Homo sapiens (Human), UniProt P50613). The test can be described thus: Inhibition of kinase activity, CDK7. The following applies: co-factors cyclin H and MNAT1. The format is biochemical. As to the method: (§1) Compounds of the invention were assayed for activity against a variety of different kinases. Exemplary results are presented as calculated IC50 values (Table A1 & A2). In Table A1 and A2 “A” represents a calculated IC50 value of less than 100 nM; “B” represents a calculated IC50 value of greater than or equal to 100 nM and less than 1 μM; and “C” represents a calculated IC50 value of 1 μM or greater. The co-factors used for each kinase in the assays were as follows: CDK7: cyclin H and MNAT1; CDK2: cyclin A; CDK9: cyclin K.

The subject of test [2] is Kelly neuroblastoma. Description: Inhibition of cell proliferation (CellTiter-Glo), Kelly. The test is classed as cell-based. Particulars: 72 hours incubation, CellTiter-Glo, 4,000 cells/well. As to the method:
(§2) Exemplary compounds of the invention were tested at different concentrations. Cells were plated in 96-well plates at the following seeding densities: Jurkat T-cell acute lymphoblastic leukemia 25,000 cells/well; HCT116 colorectal carcinoma 8,000 cells/well; Kelly neuroblastoma 4,000 cells/well. The cells were treated with various concentration of compounds (ranging from 1 nM to 10 μM). DMSO solvent with no compound served as a control. Following incubation for 72 hours, cell survival following treatment with exemplary compounds described herein was assessed by CellTiter-Glo® Luminescent cell viability assay (Promega). IC50 values were determined using GRAPHPAD PRISM 6 software. Exemplary results are shown in Table A3, wherein “A” represents a calculated IC50 value of less than 500 nM; “B” represents a calculated IC50 value of greater than or equal to 500 nM and less than 5000 μM; and “C” represents a calculated IC50 value of 5000 μM or greater

Test [3] concerns HCT116 colorectal carcinoma. The test can be described thus: Inhibition of cell proliferation (CellTiter-Glo), HCT116. The format is cell-based. The following applies: Homo sapiens, HCT-116; 72 hours incubation, CellTiter-Glo, 8,000 cells/well. As to the method:
as §2

Test [4] concerns Jurkat T-cell acute lymphoblastic leukemia. Description: Inhibition of cell proliferation (CellTiter-Glo), Jurkat. The format is cell-based. The following applies: Homo sapiens, 72 hours incubation, CellTiter-Glo, 25,000 cells/well. As to the method: as §2
Test [5] concerns the target MELK (Homo sapiens (Human), UniProt Q14680). Description: Inhibition of kinase activity, MELK. The format is biochemical. As to the method:
as §1

The target in test [6] is RET (Homo sapiens (Human), UniProt P07949). Description: Inhibition of kinase activity, RET. The test is classed as biochemical. Here is the method:
as §1

Test [7] concerns the target CDK2 (Homo sapiens (Human), UniProt P24941). The test can be described thus: Inhibition of kinase activity, CDK2. The test is classed as biochemical. Particulars: co-factor cyclin A. Here is the method: as §1
The target of test [8] is CHEK2 (Homo sapiens (Human), UniProt O96017). Description: Inhibition of kinase activity, CHEK2. The format is biochemical. Here is the method: as §1
Test [9] has as its target PRKCQ (Homo sapiens (Human), UniProt Q04759). The test can be described thus: Inhibition of kinase activity, PRKCQ. The format is biochemical. Here is the method: as §1
The target in test [10] is FGR (Homo sapiens (Human), UniProt P09769). Description: Inhibition of kinase activity, FGR. The format is biochemical. As to the method: as §1
Test [11] addresses HIPK4 (Homo sapiens (Human), UniProt Q8NE63). Description: Inhibition of kinase activity, HIPK4. The format is biochemical. As to the method: as §1
For test [12], the target named is CDK9 (Homo sapiens (Human), UniProt P50750). The test can be described thus: Inhibition of kinase activity, CDK9. The test is classed as biochemical. Particulars: co-factor cyclin K. As to the method: as §1
Test [13] concerns the target T1, CDK7. Description: Labeling of CDK7 with an inhibitor (CAK complex, nano LC-MS). The format is binding. The following applies: 10-fold molar excess of compound, 6 hrs at 37° C., trypsin digest. As to the method:
CAK complex (Millipore cat#14-476) in 40 mM Hepes pH 7.4, 150 mM NaCl, 5% glycerol and 1 mM DTT with protease and phosphatase inhibitors was incubated with a 10-fold molar excess of Compound 101 for 6 hrs at 37° C. Proteins were resolved by SDS-PAGE, bands corresponding to CDK7 were digested in-gel with trypsin, and peptides analyzed by nano LC-MS using an Orbitrap XL mass spectrometer (ThermoFisher Scientific, San Jose, Calif.). Efficiency of labeling was estimated from the reduction in signal of the Cys312 containing peptide […] (SEQ ID NO: 3) compared to DMSO control. Signals from CDK7 peptides VPFLPGDSDLDQLTR (SEQ ID NO: 1) and LDFLGEGQFATVYK were used for normalization. See FIG. 1 for the total ion chromatograms (TIC) and extracted ion chromatograms (EIC) of the CDK7 peptides treated with DMSO (A-D) or Compound 101 (E-H). The labeled peptide was detected by mass spectrometry, as shown in the spectrum of FIG. 2.

Test [14] deals with SRC (Homo sapiens (Human), UniProt P12931). Description: Inhibition of kinase activity, SRC. The format is biochemical. Here is the method: as §1
SRC, sequence (P12931 whole entry, looked up): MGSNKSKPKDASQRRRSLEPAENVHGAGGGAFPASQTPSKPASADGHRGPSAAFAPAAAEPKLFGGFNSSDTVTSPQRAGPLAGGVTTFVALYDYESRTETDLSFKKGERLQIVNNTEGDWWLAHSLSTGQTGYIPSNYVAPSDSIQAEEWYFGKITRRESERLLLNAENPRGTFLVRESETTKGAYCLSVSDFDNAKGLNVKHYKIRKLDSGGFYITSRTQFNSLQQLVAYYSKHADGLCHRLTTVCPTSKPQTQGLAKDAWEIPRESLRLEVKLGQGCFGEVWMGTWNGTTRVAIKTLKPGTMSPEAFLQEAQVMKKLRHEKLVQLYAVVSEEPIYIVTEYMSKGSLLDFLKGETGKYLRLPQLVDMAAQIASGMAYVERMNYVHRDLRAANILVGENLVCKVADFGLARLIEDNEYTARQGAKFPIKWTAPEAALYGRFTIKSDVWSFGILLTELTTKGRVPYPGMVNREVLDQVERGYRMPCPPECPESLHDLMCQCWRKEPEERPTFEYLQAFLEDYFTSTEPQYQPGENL

T1 sequence (P50613 whole entry): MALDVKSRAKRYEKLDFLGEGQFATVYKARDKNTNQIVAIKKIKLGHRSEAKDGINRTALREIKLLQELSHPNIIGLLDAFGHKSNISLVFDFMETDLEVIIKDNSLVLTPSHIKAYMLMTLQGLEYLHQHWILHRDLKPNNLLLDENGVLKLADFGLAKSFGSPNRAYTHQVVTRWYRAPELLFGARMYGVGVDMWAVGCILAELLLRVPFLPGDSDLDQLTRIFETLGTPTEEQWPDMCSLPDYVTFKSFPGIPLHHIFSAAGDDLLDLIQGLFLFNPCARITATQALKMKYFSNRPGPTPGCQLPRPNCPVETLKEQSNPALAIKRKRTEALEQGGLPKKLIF
T1 sequence (P51946 whole entry partner): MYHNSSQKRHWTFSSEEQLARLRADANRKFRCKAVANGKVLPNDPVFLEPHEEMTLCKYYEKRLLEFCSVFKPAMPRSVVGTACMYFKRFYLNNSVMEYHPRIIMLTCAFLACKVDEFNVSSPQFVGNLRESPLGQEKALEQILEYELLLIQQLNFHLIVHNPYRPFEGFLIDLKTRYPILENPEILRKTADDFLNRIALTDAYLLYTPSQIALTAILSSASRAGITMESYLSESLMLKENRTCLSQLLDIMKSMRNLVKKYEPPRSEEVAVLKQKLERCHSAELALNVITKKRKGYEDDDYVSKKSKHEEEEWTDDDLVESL
T1 sequence (P51948 whole entry partner): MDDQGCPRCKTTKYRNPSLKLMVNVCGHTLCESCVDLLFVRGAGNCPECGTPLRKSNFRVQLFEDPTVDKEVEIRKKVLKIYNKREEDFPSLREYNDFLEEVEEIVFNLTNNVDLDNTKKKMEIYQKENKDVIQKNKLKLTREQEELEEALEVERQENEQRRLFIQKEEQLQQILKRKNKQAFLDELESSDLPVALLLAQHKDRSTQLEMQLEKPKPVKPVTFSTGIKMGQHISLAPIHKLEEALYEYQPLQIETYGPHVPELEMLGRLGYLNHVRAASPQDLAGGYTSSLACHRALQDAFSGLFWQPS
MELK, sequence (Q14680 whole entry): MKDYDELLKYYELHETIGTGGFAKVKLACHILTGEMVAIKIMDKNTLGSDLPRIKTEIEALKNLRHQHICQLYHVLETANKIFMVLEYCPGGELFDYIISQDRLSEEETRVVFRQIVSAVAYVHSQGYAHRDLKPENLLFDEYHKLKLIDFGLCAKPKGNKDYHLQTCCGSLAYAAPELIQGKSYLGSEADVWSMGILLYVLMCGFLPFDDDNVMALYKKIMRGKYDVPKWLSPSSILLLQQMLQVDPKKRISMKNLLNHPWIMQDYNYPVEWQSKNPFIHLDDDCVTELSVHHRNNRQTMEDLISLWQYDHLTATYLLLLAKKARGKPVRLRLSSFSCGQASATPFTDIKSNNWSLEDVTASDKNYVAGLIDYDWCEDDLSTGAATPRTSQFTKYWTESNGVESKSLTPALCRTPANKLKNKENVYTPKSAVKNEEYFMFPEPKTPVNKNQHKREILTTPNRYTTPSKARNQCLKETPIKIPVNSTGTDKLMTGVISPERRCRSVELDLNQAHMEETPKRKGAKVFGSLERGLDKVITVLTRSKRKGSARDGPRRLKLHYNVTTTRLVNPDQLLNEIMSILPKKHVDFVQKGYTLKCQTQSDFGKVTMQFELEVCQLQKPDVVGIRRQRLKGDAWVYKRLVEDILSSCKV
CHEK2, sequence (O96017 whole entry): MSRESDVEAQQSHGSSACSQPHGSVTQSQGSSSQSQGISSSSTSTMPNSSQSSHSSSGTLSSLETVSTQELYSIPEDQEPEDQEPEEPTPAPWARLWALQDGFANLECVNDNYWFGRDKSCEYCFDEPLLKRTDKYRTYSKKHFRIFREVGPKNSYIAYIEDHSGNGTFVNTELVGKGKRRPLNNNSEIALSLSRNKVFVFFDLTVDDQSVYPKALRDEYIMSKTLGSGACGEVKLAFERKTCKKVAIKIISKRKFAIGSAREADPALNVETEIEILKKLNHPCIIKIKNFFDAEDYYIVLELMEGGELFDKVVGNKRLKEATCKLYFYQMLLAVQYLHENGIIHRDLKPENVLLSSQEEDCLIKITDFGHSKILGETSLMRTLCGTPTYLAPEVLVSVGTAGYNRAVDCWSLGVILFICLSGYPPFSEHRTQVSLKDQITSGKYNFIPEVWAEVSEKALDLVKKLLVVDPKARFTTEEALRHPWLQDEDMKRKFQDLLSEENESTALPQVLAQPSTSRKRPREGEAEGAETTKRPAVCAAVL
PRKCQ, sequence (Q04759 whole entry): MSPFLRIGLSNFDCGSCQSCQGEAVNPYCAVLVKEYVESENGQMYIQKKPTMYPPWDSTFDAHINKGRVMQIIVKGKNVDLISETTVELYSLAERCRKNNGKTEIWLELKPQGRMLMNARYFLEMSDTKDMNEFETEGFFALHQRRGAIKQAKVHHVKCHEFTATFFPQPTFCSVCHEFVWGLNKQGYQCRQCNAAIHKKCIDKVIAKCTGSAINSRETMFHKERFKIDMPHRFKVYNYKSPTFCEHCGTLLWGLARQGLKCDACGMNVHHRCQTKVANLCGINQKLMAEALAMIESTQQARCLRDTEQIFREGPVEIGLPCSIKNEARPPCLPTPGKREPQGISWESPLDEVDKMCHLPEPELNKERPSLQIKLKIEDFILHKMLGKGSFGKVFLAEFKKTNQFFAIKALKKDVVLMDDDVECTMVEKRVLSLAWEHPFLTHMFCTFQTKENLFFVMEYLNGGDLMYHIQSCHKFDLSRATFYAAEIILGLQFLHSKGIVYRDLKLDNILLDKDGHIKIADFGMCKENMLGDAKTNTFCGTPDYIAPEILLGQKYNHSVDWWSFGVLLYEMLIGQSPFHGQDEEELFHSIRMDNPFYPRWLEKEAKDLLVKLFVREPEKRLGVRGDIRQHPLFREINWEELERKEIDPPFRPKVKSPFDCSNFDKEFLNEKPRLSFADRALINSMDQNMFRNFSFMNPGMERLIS
HIPK4, sequence (Q8NE63 whole entry): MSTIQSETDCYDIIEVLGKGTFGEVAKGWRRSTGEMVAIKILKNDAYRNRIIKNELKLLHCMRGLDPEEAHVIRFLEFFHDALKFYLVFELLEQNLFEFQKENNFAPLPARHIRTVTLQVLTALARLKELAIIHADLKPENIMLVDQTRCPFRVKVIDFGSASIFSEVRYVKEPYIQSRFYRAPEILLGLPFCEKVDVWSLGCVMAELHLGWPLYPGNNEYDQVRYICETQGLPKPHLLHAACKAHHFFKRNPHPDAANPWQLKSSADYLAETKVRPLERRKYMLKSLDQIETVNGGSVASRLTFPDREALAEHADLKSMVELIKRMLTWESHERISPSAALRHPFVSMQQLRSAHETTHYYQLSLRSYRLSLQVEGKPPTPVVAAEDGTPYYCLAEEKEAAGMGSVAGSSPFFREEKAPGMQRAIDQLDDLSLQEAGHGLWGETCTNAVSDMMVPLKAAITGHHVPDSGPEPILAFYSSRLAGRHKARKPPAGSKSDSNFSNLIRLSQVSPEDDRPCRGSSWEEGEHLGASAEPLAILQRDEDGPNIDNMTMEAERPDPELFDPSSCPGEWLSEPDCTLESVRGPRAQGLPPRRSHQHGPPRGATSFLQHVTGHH
CDK9, sequence (P50750 whole entry): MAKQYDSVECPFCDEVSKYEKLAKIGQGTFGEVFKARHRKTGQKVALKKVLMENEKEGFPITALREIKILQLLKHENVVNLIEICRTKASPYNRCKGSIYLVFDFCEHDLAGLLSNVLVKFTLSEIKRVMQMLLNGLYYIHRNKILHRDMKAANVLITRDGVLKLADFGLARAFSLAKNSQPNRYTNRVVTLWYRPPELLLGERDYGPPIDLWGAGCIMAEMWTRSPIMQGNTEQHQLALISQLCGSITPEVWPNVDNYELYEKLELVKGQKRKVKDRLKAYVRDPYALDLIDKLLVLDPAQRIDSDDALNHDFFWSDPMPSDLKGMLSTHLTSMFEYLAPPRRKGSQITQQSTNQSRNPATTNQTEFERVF
CDK9, sequence (O75909 whole entry partner): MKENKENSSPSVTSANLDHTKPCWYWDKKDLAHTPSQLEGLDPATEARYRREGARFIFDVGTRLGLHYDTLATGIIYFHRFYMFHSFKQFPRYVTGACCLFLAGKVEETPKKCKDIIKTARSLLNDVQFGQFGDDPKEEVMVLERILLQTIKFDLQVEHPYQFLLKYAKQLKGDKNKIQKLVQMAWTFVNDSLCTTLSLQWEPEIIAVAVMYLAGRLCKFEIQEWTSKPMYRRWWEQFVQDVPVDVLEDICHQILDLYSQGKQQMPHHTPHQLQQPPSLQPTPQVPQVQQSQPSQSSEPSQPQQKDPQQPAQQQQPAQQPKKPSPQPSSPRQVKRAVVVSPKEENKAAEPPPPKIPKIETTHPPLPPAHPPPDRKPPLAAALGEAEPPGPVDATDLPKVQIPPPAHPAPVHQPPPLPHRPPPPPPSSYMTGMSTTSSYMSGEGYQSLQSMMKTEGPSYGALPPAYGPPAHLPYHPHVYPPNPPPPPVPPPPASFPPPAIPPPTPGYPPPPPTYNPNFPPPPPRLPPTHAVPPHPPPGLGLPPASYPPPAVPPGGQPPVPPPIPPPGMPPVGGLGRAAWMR

Take `C=CC(=O)Nc1ccc(C(=O)Nc2ccc(Nc3n[nH]c4c3CN(C(=O)N[C@H](CN(C)C)c3ccccc3)C4(C)C)cc2)cc1` [Compound 102, (S)-3-((4-(4-acrylamidobenzamido)phenyl)amino)-N-(2-(dimethylamino)-1-phenylethyl)-6,6-dimethyl-4,6-dihydropyrrolo[3,4-c]pyrazole-5(1H)-carboxamide]: the half-inhibitory concentration (IC50) in [1] was less than 0.1 µM; in test [2], not below 5000 µM.
Consider `CCC(=O)Nc1ccc(C(=O)Nc2cccc(Nc3n[nH]c4c3CN(C(=O)N[C@H](CN(C)C)c3ccccc3)C4(C)C)c2)cc1` [Compound 104, (S)-N-(2-(dimethylamino)-1-phenylethyl)-6,6-dimethyl-3-((3-(4-propionamidobenzamido)phenyl)amino)-4,6-dihydropyrrolo[3,4-c]pyrazole-5(1H)-carboxamide], for which the 50% inhibitory concentration (IC50) in test [1] is less than 0.1 µM; in test [3], 0.5 to 5000 µM; in test [4], 0.5 to 5000 µM.
In [1], `C=CC(=O)Nc1ccc(Nc2n[nH]c3c2CN(C(=O)N[C@H](CN(C)C)c2ccccc2)C3(C)C)cc1` [Compound 111, (S)-3-((4-acrylamidophenyl)amino)-N-(2-(dimethylamino)-1-phenylethyl)-6,6-dimethyl-4,6-dihydropyrrolo[3,4-c]pyrazole-5(1H)-carboxamide] registered an IC50 of 0.1 to 1 µM.
On the same count and under the same terms, as for `C=CC(=O)Nc1ccc(C(=O)N[C@H]2CCC[C@@H](Nc3n[nH]c4c3CN(C(=O)N[C@H](CN(C)C)c3ccccc3)C4(C)C)C2)cc1` [Compound 117, 3-(((1R,3S)-3-(4-acrylamidobenzamido)cyclohexyl)amino)-N-((S)-2-(dimethylamino)-1-phenylethyl)-6,6-dimethyl-4,6-dihydropyrrolo[3,4-c]pyrazole-5(1H)-carboxamide], the figure is less than 0.1 µM.
On to `C=CC(=O)Nc1ccc(C(=O)Nc2cccc(Nc3n[nH]c4c3CN(C(=O)NCCN(C)C)C4(C)C)c2)cc1` [Compound 106, 3-((3-(4-acrylamidobenzamido)phenyl)amimo)-N-(2-(dimethylamino)ethyl)-6,6-dimethyl-4,6-dihydropyrrolo[3,4-c]pyrazole-5(1H)-carboxamide], for which the IC50 in test [5] is 0.1 to 1 µM; in test [1], 0.1 to 1 µM; in test [2], not below 5000 µM.
As to `CN(C)C/C=C/C(=O)Nc1ccc(C(=O)Nc2cccc(Nc3n[nH]c4c3CN(C(=O)N[C@H](CO)c3ccccc3)C4(C)C)c2)cc1` [Compound 109, (S,E)-3-((3-(4-(4-(dimethylamino)but-2-enamido)benzamido)phenyl)amino)-N-(2-hydroxy-1-phenylethyl)-6,6-dimethyl-4,6-dihydropyrrolo[3,4-c]pyrazole-5(1H)-carboxamide], the IC50 in test [1] was less than 0.1 µM.
On to `C=CC(=O)Nc1ccc(C(=O)Nc2cccc(C(=O)Nc3n[nH]c4c3CN(C(=O)N[C@H](CN(C)C)c3ccccc3)C4(C)C)c2)cc1` [Compound 112, (S)-3-(3-(4-acrylamidobenzamido)benzamido)-N-(2-(dimethylamino)-1-phenylethyl)-6,6-dimethyl-4,6-dihydropyrrolo[3,4-c]pyrazole-5(1H)-carboxamide], for which the concentration for half-maximal inhibition (IC50) in test [1] is less than 0.1 µM; in test [2], 0.5 to 5000 µM.
For `C=CC(=O)N1CCC(Nc2n[nH]c3c2CN(C(=O)N[C@H](CN(C)C)c2ccccc2)C3(C)C)CC1` [Compound 231, (5)-3-((1-acryloylpiperidin-4-yl)amino)-N-(2-(dimethylamino)-1-phenylethyl)-6,6-dimethyl-4,6-dihydropyrrolo[3,4-c]pyrazole-5(1H)-carboxamide], the 50% inhibitory concentration (IC50) in test [1] was less than 0.1 µM.
As to `C=CC(=O)N1CCC[C@H](C(=O)Nc2n[nH]c3c2CN(C(=O)N[C@H](CN(C)C)c2ccccc2)C3(C)C)C1` [Compound 114, 3-((S)-1-acryloylpiperidine-3-carboxamido)-N-((S)-2-(dimethylamino)-1-phenylethyl)-6,6-dimethyl-4,6-dihydropyrrolo[3,4-c]pyrazole-5(1H)-carboxamide], in test [1], the IC50 is less than 0.1 µM.
Molecule `C=CC(=O)Nc1ccc(C(=O)Nc2nn(C)c3c2CN(C(=O)N[C@H](CN(C)C)c2ccccc2)C3(C)C)c(OC)c1` [Compound 243, (S)-3-(4-acrylamido-2-methoxybenzamido)-N-(2-(dimethylamino)-1-phenylethyl)-1,6,6-trimethyl-4,6-dihydropyrrolo[3,4-c]pyrazole-5(1H)-carboxamide] gave an IC50 in test [1] not below 1 µM.
Regarding `C=CC(=O)Nc1ccc(C(=O)Nc2cccc(Nc3n[nH]c4c3CN(C(=O)N[C@H](CN(C)C)c3ccccc3)C4(C)C)c2)cc1` [Compound 101, (S)-3-((3-(4-acrylamidobenzamido)phenyl)amino)-N-(2-(dimethylamino)-1-phenylethyl)-6,6-dimethyl-4,6-dihydropyrrolo[3,4-c]pyrazole-5(1H)-carboxamide], the half-maximal inhibitory concentration (IC50) in [6] is less than 0.1 µM; in [5], 0.1 to 1 µM; in test [7], not below 1 µM; in [8], less than 0.1 µM; in test [1] it was less than 0.1 µM; in [9], less than 0.1 µM. The IC50 in test [3] is less than 0.5 µM; in test [4] it was less than 0.5 µM; in test [2] it was 0.5 to 5000 µM; in [10], less than 0.1 µM; in test [11], 0.1 to 1 µM; in test [12], not below 1 µM. For the same molecule, the IC50 in test [14] was less than 0.1 µM. Besides, in [13], the “Covalent labeling of CDK7 peptide detected by mass spectrometry” value is given as “labeled with Compound 101 at Cys312”.
Regarding `C=CC(=O)Nc1ccc(C(=O)Nc2n[nH]c3c2CN(C(=O)N[C@H](CN(C)C)c2ccccc2)[C@H]3c2ccccc2)cc1` [Compound 239, (S)-3-(4-acrylamidobenzamido)-N-((S)-2-(dimethylamino)-1-phenylethyl)-6-phenyl-4,6-dihydropyrrolo[3,4-c]pyrazole-5(1H)-carboxamide], in test [1], the IC50 was not below 1 µM.
Still for that read-out and setting: next, `C=CC(=O)Nc1ccc(C(=O)Nc2c3c(nn2C)C(C)(C)N(C(=O)N[C@H](CN(C)C)c2ccccc2)C3)c(OC)c1` [Compound 244, (S)-3-(4-acrylamido-2-methoxybenzamido)-N-(2-(dimethylamino)-1-phenylethyl)-2,6,6-trimethyl-2,6-dihydropyrrolo[3,4-c]pyrazole-5(4H)-carboxamide]: not below 1 µM.
As to `C=CC(=O)Nc1ccc(C(=O)Nc2cccc(Nc3n[nH]c4c3CN(C(=O)N3CCN(C)CC3)C4(C)C)c2)cc1` [Compound 107, 4-acrylamido-N-(3-((6,6-dimethyl-5-(4-methylpiperazine-1-carbonyl)-1,4,5,6-tetrahydropyrrolo[3,4-c]pyrazol-3-yl)amino)phenyl)benzamide], the figures for the IC50 in [1] and in [4] were less than 0.1 µM and 0.5 to 5000 µM, respectively.

The record behind these values is patent US10870651B2, “Inhibitors of cyclin-dependent kinase 7 (CDK7)” (Dana-Farber Cancer Institute, Inc., priority 2014, dated 2020).
